Patent US6737383B1, “Herbicidal oxadiazolidines” (priority 1999, dated 2004)

Legend:
bedstraw = experiment: Test B pre/postemergence bedstraw; assay type: in vivo, Galium aparine
How it was run: (§1)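 Test chemicals in a non-phytotoxic solvent mixture with surfactant were sprayed preemergence onto planted seeds and postemergence onto plants 2 to 18 cm tall (1- to 4-leaf stage). After twelve to sixteen days in a greenhouse, injury was visually rated against untreated controls from 0 (no effect) to 10 (complete control).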

blackgrass = experiment: Test B pre/postemergence blackgrass; assay type: in vivo, Alopecurus myosuroides
How it was run: as §1

surinam grass = experiment: Test B pre/postemergence surinam grass; assay type: in vivo, Brachiaria decumbens
How it was run: as §1

cocklebur = experiment: Test B pre/postemergence cocklebur; assay type: in vivo, Xanthium strumarium
How it was run: as §1

corn = experiment: Test B pre/postemergence corn; assay type: in vivo, Zea mays
How it was run: as §1

morningglory = experiment: Test B pre/postemergence morningglory; assay type: in vivo, Ipomoea hederacea
How it was run: as §1

pigweed = experiment: Test B pre/postemergence pigweed; assay type: in vivo, Amaranthus retroflexus
How it was run: as §1

rape = experiment: Test B pre/postemergence rape; assay type: in vivo, Brassica napus
How it was run: as §1

soybean = experiment: Test B pre/postemergence soybean; assay type: in vivo, Glycine max
How it was run: as §1

sugar beet = experiment: Test B pre/postemergence sugar beet; assay type: in vivo, Beta vulgaris
How it was run: as §1

velvetleaf = experiment: Test B pre/postemergence velvetleaf; assay type: in vivo, Abutilon theophrasti
How it was run: as §1

wild oat = experiment: Test B pre/postemergence wild oat; assay type: in vivo, Avena fatua
How it was run: as §1

purple nutsedge = experiment: Test B pre/postemergence purple nutsedge; assay type: in vivo, Cyperus rotundus; details: Postemergence
How it was run: as §1

rice = experiment: Test B flood test rice; assay type: in vivo, Oryza sativa
How it was run: (§2)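 Read-out is a visual response score from 0 (no effect) to 10 (complete control), assigned by comparison with untreated controls. Treatment was applied at the 2-leaf stage, and plants stayed in the greenhouse for twelve to sixteen days before scoring.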

smallflower flatsedge = experiment: Test B flood test smallflower flatsedge; assay type: in vivo, Cyperus difformis
How it was run: as §2

bamyardgrass = experiment: Test B flood test barnyardgrass; assay type: in vivo, Echinochloa crus-galli
How it was run: as §2

[1] = Preemergence, Rate 62 g/ha, scale of 0 to 10 where 0 is no effect and 10 is complete control
[2] = Preemergence, Rate 250 g/ha, scale of 0 to 10 where 0 is no effect and 10 is complete control
[3] = Preemergence, Rate 500 g/ha, scale of 0 to 10 where 0 is no effect and 10 is complete control
[4] = Rate 62 g/ha, Postemergence, scale of 0 to 10 where 0 is no effect and 10 is complete control
[5] = Rate 125 g/ha, Postemergence, scale 0 to 10
[6] = Rate 125 g/ha, Preemergence, scale of 0 to 10 where 0 is no effect and 10 is complete control
[7] = Rate 500 g/ha, Postemergence, scale 0 to 10, 0 no effect, 10 complete control
[8] = Rate 62 g/ha, headed Pre-emergence (flood test species), scale 0 to 10 (0 no effect, 10 complete control)
[9] = Rate 125 g/ha, Pre-emergence, flood test species, scale 0 to 10 where 0 is no effect and 10 is complete control
[10] = Rate 250 g/ha, Pre-emergence, flood-test species, scale 0 to 10, 0 is no effect, 10 is complete control
[11] = Rate 500 g/ha, Pre-emergence, flood test species, scale 0 to 10 (0 no effect, 10 complete control)

COCCOCn1c(=O)on(C(=O)N(c2ccc(F)cc2)C(C)C)c1=O [Compound 220]
7: Blackgrass plant response rating (blackgrass; [5]) | B. signalgrass plant response rating (surinam grass; [1]) | B. signalgrass plant response rating (surinam grass; Rate 125 g/ha, Postemergence, scale 0 (no effect) to 10 (complete control)) | B. signalgrass plant response rating (surinam grass; [6]) | Plant response rating, Corn (corn; [3]) | Plant response rating (0 to 10; 0 is no effect, 10 is complete control), Soybean (soybean; Rate 250 g/ha, Postemergence) | Soybean plant response rating (soybean; [7]) | Wild oats plant response rating (wild oat; [2])
3: Plant response rating (0 to 10; 0 is no effect, 10 is complete control), Cocklebur (cocklebur; Rate 250 g/ha, Postemergence) | Corn plant response rating (corn; [6]) | Plant response rating (0 to 10; 0 is no effect, 10 is complete control), Redroot pigweed (pigweed; Rate 250 g/ha, Postemergence) | Plant response rating (0 to 10; 0 is no effect, 10 is complete control), Rape (rape; Rate 250 g/ha, Postemergence) | Plant response rating, Soybean (soybean; [3]) | Velvetleaf plant response rating (velvetleaf; [6]) | Wild oats plant response rating (wild oat; [1]) | Barnyardgrass plant response rating (bamyardgrass; [11])
9: Bedstraw plant response rating (bedstraw; [7]) | Blackgrass plant response rating (blackgrass; [6])
5: Blackgrass plant response rating (blackgrass; [4]) | Plant response rating, Cocklebur (cocklebur; [3]) | Cocklebur plant response rating (cocklebur; [7]) | Corn plant response rating (corn; [2]) | Morningglory plant response rating (morningglory; [4]) | Morningglory plant response rating (morningglory; [5]) | Soybean plant response rating (soybean; [4]) | Soybean plant response rating (soybean; [5]) | Sugarbeets plant response rating (sugar beet; [1]) | Wild oats plant response rating (wild oat; [6])
2: B. signalgrass plant response rating (surinam grass; [4]) | Corn plant response rating (corn; [5]) | Redroot pigweed plant response rating (pigweed; [6]) | Plant response rating (0 to 10; 0 is no effect, 10 is complete control), Sugarbeets (sugar beet; Rate 250 g/ha, Postemergence) | Sugarbeets plant response rating (sugar beet; [7]) | Plant response rating (0 to 10; 0 is no effect, 10 is complete control), Velvetleaf (velvetleaf; Rate 250 g/ha, Postemergence) | Velvetleaf plant response rating (velvetleaf; [7]) | Plant response rating (0 to 10; 0 is no effect, 10 is complete control), Wild oats (wild oat; Rate 250 g/ha, Postemergence) | Wild oats plant response rating (wild oat; [7]) | Barnyardgrass plant response rating (bamyardgrass; [10])
1: Morningglory plant response rating (morningglory; [2]) | Redroot pigweed plant response rating (pigweed; [5]) | Rape plant response rating (rape; [1]) | Velvetleaf plant response rating (velvetleaf; [1])
6: Bedstraw plant response rating (bedstraw; [4]) | Plant response rating (0 to 10; 0 is no effect, 10 is complete control), Corn (corn; Rate 250 g/ha, Postemergence) | Corn plant response rating (corn; [7]) | Plant response rating, Morningglory (morningglory; [3]) | Rape plant response rating (rape; [6]) | Sugarbeets plant response rating (sugar beet; [6])
0: Bedstraw plant response rating (bedstraw; [1]) | Cocklebur plant response rating (cocklebur; [1]) | Cocklebur plant response rating (cocklebur; [4]) | Cocklebur plant response rating (cocklebur; [5]) | Cocklebur plant response rating (cocklebur; [6]) | Corn plant response rating (corn; [1]) | Corn plant response rating (corn; [4]) | Morningglory plant response rating (morningglory; [1]) | Morningglory plant response rating (morningglory; [6]) | Redroot pigweed plant response rating (pigweed; [1]) | Redroot pigweed plant response rating (pigweed; [4]) | Rape plant response rating (rape; [4]) | Rape plant response rating (rape; [5]) | Soybean plant response rating (soybean; [1]) | Soybean plant response rating (soybean; [2]) | Soybean plant response rating (soybean; [6]) | Sugarbeets plant response rating (sugar beet; [4]) | Sugarbeets plant response rating (sugar beet; [5]) | Velvetleaf plant response rating (velvetleaf; [4]) | Velvetleaf plant response rating (velvetleaf; [5]) | Wild oats plant response rating (wild oat; [4]) | Wild oats plant response rating (wild oat; [5]) | Nutsedge plant response rating (purple nutsedge; Rate 62 g/ha, scale of 0 to 10 where 0 is no effect and 10 is complete control) | Nutsedge plant response rating (purple nutsedge; Rate 125 g/ha, scale 0 to 10) | Plant response rating (0 to 10; 0 is no effect, 10 is complete control), Nutsedge (purple nutsedge; Rate 250 g/ha) | Nutsedge plant response rating (purple nutsedge; Rate 500 g/ha, scale 0 to 10, 0 no effect, 10 complete control) | Rice plant response rating (rice; [8]) | Rice plant response rating (rice; [9]) | Rice plant response rating (rice; [10]) | Rice plant response rating (rice; [11]) | S. Flatsedge plant response rating (smallflower flatsedge; [8]) | S. Flatsedge plant response rating (smallflower flatsedge; [9]) | S. Flatsedge plant response rating (smallflower flatsedge; [10]) | S. Flatsedge plant response rating (smallflower flatsedge; [11]) | Barnyardgrass plant response rating (bamyardgrass; [8]) | Barnyardgrass plant response rating (bamyardgrass; [9])
4: Bedstraw plant response rating (bedstraw; [6]) | Redroot pigweed plant response rating (pigweed; [7]) | Rape plant response rating (rape; [7]) | Velvetleaf plant response rating (velvetleaf; [2])
10: Bedstraw plant response rating (bedstraw; [2]) | Plant response rating, Bedstraw (bedstraw; [3]) | Blackgrass plant response rating (blackgrass; [2]) | Plant response rating, Blackgrass (blackgrass; [3]) | Plant response rating, Redroot pigweed (pigweed; [3])
8: Bedstraw plant response rating (bedstraw; [5]) | Plant response rating (0 to 10; 0 is no effect, 10 is complete control), Bedstraw (bedstraw; Rate 250 g/ha, Postemergence) | Blackgrass plant response rating (blackgrass; [1]) | Plant response rating (0 to 10; 0 is no effect, 10 is complete control), Blackgrass (blackgrass; Rate 250 g/ha, Postemergence) | Blackgrass plant response rating (blackgrass; [7]) | B. signalgrass plant response rating (surinam grass; Preemergence, Rate 250 g/ha, scale 0 to 10, 0 is no effect, 10 is complete control) | Plant response rating, B. signalgrass (surinam grass; [3]) | Plant response rating (0 to 10; 0 is no effect, 10 is complete control), B. signalgrass (surinam grass; Rate 250 g/ha, Postemergence) | B. signalgrass plant response rating (surinam grass; [7]) | Plant response rating (0 to 10; 0 is no effect, 10 is complete control), Morningglory (morningglory; Rate 250 g/ha, Postemergence) | Morningglory plant response rating (morningglory; [7]) | Redroot pigweed plant response rating (pigweed; [2]) | Rape plant response rating (rape; [2]) | Plant response rating, Rape (rape; [3]) | Sugarbeets plant response rating (sugar beet; [2]) | Plant response rating, Sugarbeets (sugar beet; [3]) | Plant response rating, Velvetleaf (velvetleaf; [3]) | Plant response rating, Wild oats (wild oat; [3])
